Data as given in ChEMBL document CHEMBL1152913, “Discovery of 4-azaindoles as novel inhibitors of c-Met kinase” (Bioorg Med Chem Lett, 2009).
Calls of active or inactive are those of the source. The rule behind the calls is not given here.

What was measured:
[1] = molecular target: T1, Hepatocyte growth factor receptor (Homo sapiens, UniProt P08581)
Description: (§1) Inhibition of human recombinant His-tagged c-Met by TR-FRET assay

Hepatocyte = test: Clearance rate in hepatocytes; assay type: ADME, cell-based, Liver
[2] = molecular target: T1, Hepatocyte growth factor receptor; test: Inhibition of human recombinant His-tagged c-Met at 20 uM by TR-FRET assay
[3] = molecular target: RAC-alpha serine/threonine-protein kinase (Homo sapiens) (UniProt P31749); test: Inhibition of AKT phosphorylation in human MKN45 cells after 1 hr by Western blot analysis; assay type: cell-based; conditions: MKN-45
[4] = molecular target: Mitogen-activated protein kinase 1 (Homo sapiens) (UniProt P28482); test: Inhibition of ERK2 assessed as residual activity at 20 uM
[5] = molecular target: T1, Hepatocyte growth factor receptor; remark: listed apart in the source
Description: as §1

[6] = molecular target: T1, Hepatocyte growth factor receptor; test: Inhibition of c-Met phosphorylation in human A549 cells after 1 hr; assay type: cell-based
[7] = molecular target: T1, Hepatocyte growth factor receptor; test: Inhibition of c-Met phosphorylation in human MKN45 cells after 1 hr; assay type: cell-based, MKN-45
[8] = molecular target: Macrophage-stimulating protein receptor (Homo sapiens) (UniProt Q04912); test: Inhibition of Ron assessed as residual activity at 20 uM
[9] = molecular target: T2, Tyrosine-protein kinase Mer (Homo sapiens) (UniProt Q12866); test: Inhibition of Mer assessed as residual activity at 20 uM
T2 sequence (whole entry): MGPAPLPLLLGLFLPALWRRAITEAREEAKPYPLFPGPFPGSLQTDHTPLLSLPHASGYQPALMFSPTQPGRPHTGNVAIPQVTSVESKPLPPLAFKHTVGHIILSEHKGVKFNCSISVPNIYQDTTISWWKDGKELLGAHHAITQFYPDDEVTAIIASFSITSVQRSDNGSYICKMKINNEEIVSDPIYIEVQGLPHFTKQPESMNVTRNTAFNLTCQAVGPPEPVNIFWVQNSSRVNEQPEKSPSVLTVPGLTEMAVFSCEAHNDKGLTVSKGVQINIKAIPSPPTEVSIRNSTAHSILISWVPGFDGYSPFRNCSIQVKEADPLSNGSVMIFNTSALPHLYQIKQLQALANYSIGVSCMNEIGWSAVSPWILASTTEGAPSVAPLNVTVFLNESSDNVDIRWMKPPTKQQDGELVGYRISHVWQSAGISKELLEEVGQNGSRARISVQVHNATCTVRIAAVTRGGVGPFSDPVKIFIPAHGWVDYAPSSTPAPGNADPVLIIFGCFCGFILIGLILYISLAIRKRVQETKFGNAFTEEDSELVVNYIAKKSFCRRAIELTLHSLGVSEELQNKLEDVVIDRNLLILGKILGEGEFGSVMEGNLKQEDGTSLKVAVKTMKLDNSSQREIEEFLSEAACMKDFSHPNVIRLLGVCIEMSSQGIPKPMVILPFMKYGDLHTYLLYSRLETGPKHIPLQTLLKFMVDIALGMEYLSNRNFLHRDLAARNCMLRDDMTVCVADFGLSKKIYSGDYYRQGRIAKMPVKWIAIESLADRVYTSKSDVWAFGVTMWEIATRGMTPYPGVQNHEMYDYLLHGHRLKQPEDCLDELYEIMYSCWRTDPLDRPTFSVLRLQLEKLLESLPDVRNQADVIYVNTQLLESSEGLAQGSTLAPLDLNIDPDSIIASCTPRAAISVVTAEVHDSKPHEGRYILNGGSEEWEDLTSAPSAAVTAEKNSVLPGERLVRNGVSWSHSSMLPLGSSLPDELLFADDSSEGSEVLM

[10] = molecular target: Mitogen-activated protein kinase 1 (Homo sapiens) (UniProt P28482); test: Inhibition of ERK2 phosphorylation in human MKN45 cells after 1 hr by Western blot analysis; assay type: cell-based; conditions: MKN-45
[11] = molecular target: RAC-alpha serine/threonine-protein kinase (Homo sapiens) (UniProt P31749); test: Inhibition of AKT assessed as residual activity at 20 uM
[12] = molecular target: Vascular endothelial growth factor receptor 2 (Homo sapiens) (UniProt P35968); test: Inhibition of KDR assessed as residual activity at 20 uM
[13] = molecular target: High affinity nerve growth factor receptor (Homo sapiens) (UniProt P04629); test: Inhibition of TrkA assessed as residual activity at 20 uM
[14] = molecular target: Mitogen-activated protein kinase 3 (Homo sapiens) (UniProt P27361); test: Inhibition of ERK1 phosphorylation in human MKN45 cells after 1 hr by Western blot analysis; assay type: cell-based; conditions: MKN-45
[15] = molecular target: Mitogen-activated protein kinase 3 (Homo sapiens) (UniProt P27361); test: Inhibition of ERK1 assessed as residual activity at 20 uM

c1ccc(Cn2ccc3ncccc32)cc1
IC50 [1]: Inactive

O=S(=O)(c1c(Cl)nc2sccn12)n1ccc2ncc(-c3cnn(C4CCNCC4)c3)cc21
CL (Hepatocyte): 0.3 s⁻¹

O=[N+]([O-])c1ccc(S(=O)(=O)n2ccc3ncccc32)cc1
inhibition [2]: 16%

O=S(=O)(c1cccc2nonc12)n1ccc2ncc(-c3cnn(C4CCNCC4)c3)cc21
inhibition [3]: Active
inhibition [4]: inactive
IC50 [5]: 0.009 µM
IC50 [6]: 0.13 µM
IC50 [7]: 0.2 µM
Activity [8]: 29%
Activity [9]: 19%
inhibition [10]: Active
Activity [11]: 88%
Activity [12]: 3%
Activity [13]: 18%
inhibition [14]: Active
Activity [15]: 88%

O=S(=O)(c1c(Cl)nc2sccn12)n1ccc2ncc(N3CCNCC3)cc21
CL (Hepatocyte): 1 s⁻¹
